Read-outs that look alike come from different tables or passages of the source.
Key:
[1] = tested on: plasma proteins, primarily alpha‐1 acid glycoprotein; settings: cited from earlier work
[2] = Human PBPK model Monte Carlo simulation and model parameters
in vitro = settings: female, CD-1, mouse, liver microsomes
[3] = Canine PBPK model Monte Carlo simulation and model parameters; settings: dog model
dog liver microsomes = settings: dog and human models, fit of digitized data, cited from earlier work
ABCB1 [4] = assay: ABCB1‐driven transport kinetics fit to wild‐type mouse brain tissue PK data
Excerpt: The rate of change in the amount of drug in tissues with ABCB1 expression is as follows: (3) dAT/dt=QC×CA−CVT−FABCB1,T×Vmax,ABCB1×Cv/Km+Cv In which ABCB1‐mediated efflux of drug is characterized by Michaelis–Menten saturable kinetics, where FABCB1,T is the scaling factor for the relative expression of ABCB1 transport protein in relevant tissues, Vmax,ABCB1 is the maximum velocity of ABCB1 transport out of the tissue compartment, and Km is the associated Michaelis–Menten constant. Scaling factors, FABCB1,T , were acquired from Systems Pharmacology for ABCB1 relative tissue expression as previously reported.[36]
The transfer of drugs at the BBB is unique as the mass transfer out of the vascular space surrounding the brain tissue is hindered by a permeability barrier. […] Coupling the ABCB1 transport equations as expressed above with permeability‐limited modeling equations from Choi et al.,[23] the following equations are proposed where Equation ( 4 ) describes the amount of drug within the brain tissue and Equation ( 5 ) describes the amount of drug in the vascular space surrounding the tissue: (4) VCNS*dCCNS,T/dt=PSA×CA−CCNS,V−sfABCB1,CNS×VCNS×VMAXABCB1×CCNS,V/KMABCB1+CCNS,V (5) VBB*dCBB/dt=QCNS*CA−CV−PSA×CA−CV,CNA+sfCNS×VCNS×VMAXABCB1×CCNS,V/KMABCB1+CCNS,V where VCNS is the volume of the brain tissue, VBB is the volume consisting of brain blood, CCNS,T is the concentration of drug in the brain tissue, PSA is the permeability surface area product, sfABCB1,CNS is the relative ABCB1 expression in brain tissue, and CBB is the concentration of drug in the brain blood. VCNA and VBB were set to 97% and 3% of total brain volume, respectively.[37] […] The parameter optimization method was conducted as described previously with nonlinear least squares regression. […] The corresponding Vmax,ABCB1 value was optimized to in vivo canine PK data. […] Canine model parameter values were thus fit to the patients without concurrent treatment of omeprazole to minimize the influence of potential drug–drug interactions.

ABCB1 [5] = assay: ABCB1 transport Vmax optimized to in vivo canine PK data; settings: dog and human models
Excerpt: The transfer of drugs at the BBB is unique as the mass transfer out of the vascular space surrounding the brain tissue is hindered by a permeability barrier. […] Coupling the ABCB1 transport equations as expressed above with permeability‐limited modeling equations from Choi et al.,[23] the following equations are proposed where Equation ( 4 ) describes the amount of drug within the brain tissue and Equation ( 5 ) describes the amount of drug in the vascular space surrounding the tissue: (4) VCNS*dCCNS,T/dt=PSA×CA−CCNS,V−sfABCB1,CNS×VCNS×VMAXABCB1×CCNS,V/KMABCB1+CCNS,V (5) VBB*dCBB/dt=QCNS*CA−CV−PSA×CA−CV,CNA+sfCNS×VCNS×VMAXABCB1×CCNS,V/KMABCB1+CCNS,V where VCNS is the volume of the brain tissue, VBB is the volume consisting of brain blood, CCNS,T is the concentration of drug in the brain tissue, PSA is the permeability surface area product, sfABCB1,CNS is the relative ABCB1 expression in brain tissue, and CBB is the concentration of drug in the brain blood. VCNA and VBB were set to 97% and 3% of total brain volume, respectively.[37] […] The parameter optimization method was conducted as described previously with nonlinear least squares regression. […] The corresponding Vmax,ABCB1 value was optimized to in vivo canine PK data. […]

[6] = VBL PK study in dogs (clinical trial, serum); settings: dog, iv, 2.5 mg/m^2 IV bolus, observed; for AUC(0-t): 2.5 mg/m2, AUCt, dogs, 0 to 24 h; for half-life: 2.5 mg/m2, t1/2, dogs
human ABCB1 = tested on: human ABCB1; design: method as in PMID 17142983; settings: dog and human models, cited from earlier work
[7] = bone marrow, optimized to mouse mdr1a/b (−/−) data
[8] = optimized to mouse mdr1a/b (−/−) data
[9] = concomitant prednisone/omeprazole/diphenhydramine (POD)

CC[C@]1(O)C[C@@H]2CN(CCc3c([nH]c4ccccc34)[C@@](C(=O)OC)(c3cc4c(cc3OC)N(C)[C@H]3[C@@](O)(C(=O)OC)[C@H](OC(C)=O)[C@]5(CC)C=CCN6CC[C@]43[C@@H]65)C2)C1 [VBL, Vinblastine]
percentage of drug bound to plasma proteins [1]: 48–99%
Protein binding (range) ([1]; value used in dog model): 48–99%
Protein binding (range) ([1]; value used in human model): 48–99%
Protein binding (range) ([1]; value used in mouse model): 48–99%
Partition coefficient PCblood [2]: 1.0
Partition coefficient PCBM [2, 7]: 1.0
Partition coefficient PCCNS [2, 8]: 1.21
Partition coefficient PCGut [2, 8]: 1.08
Partition coefficient PCKidney [2, 8]: 3.73
Partition coefficient PCLiver [2, 8]: 2.26
Km at 5 min (in vitro): 11.6 µM
Partition coefficient PCblood [3]: 1.0
Partition coefficient PCBM [3, 7]: 1.0
Partition coefficient PCCNS [3, 8]: 1.21
Partition coefficient PCGut [3, 8]: 1.08
Partition coefficient PCKidney [3, 8]: 3.73
Partition coefficient PCLiver [3, 8]: 2.26
Vmmet (metabolism Vmax) (dog liver microsomes; extrapolated using 55 mg protein/g liver): 189.6 µmol/L/h
Km (dog liver microsomes; read-out: Kmmet (metabolism Km)): 9.53 µM
Vmbil (biliary transport Vmax) (ABCB1 [4]; WT mouse, set equivalent to ABCB1 value): 928.8 nmol/L/h
Vmax, ABCB1‐driven transport (ABCB1 [4]; fit to wild‐type mouse brain tissue PK data): 928.8 nM/h
KmABCB1 (ABCB1 [4]; mouse, optimized parameter): 6.41 nmol/L
VmABCB1 (ABCB1 [4]; mouse, optimized parameter): 928.8 nmol/L/h
VmABCB1 (ABCB1 [5]; optimized to in vivo canine PK data): 64.54 nmol/L/h
Vmbil (biliary transport Vmax) (ABCB1 [5]; set equivalent to ABCB1 value): 64.54 nmol/L/h
AUC(0-t) ([6]; concomitant prednisolone only): 0.186 µM·h
AUC(0-t) [6, 9]: 0.0477 µM·h
half-life ([6]; all patients regardless of concomitant treatment): 18.6 h
half-life ([6]; concomitant prednisolone only): 15.7 h
half-life [6, 9]: 5.15 h
KmABCB1 (human ABCB1; based on ATPase activity): 5760 nmol/L
Km (human ABCB1; set equivalent to ABCB1 value, read-out: Kmbil (biliary transport Km)): 5.76 µM

— PMC9834611 (Pharmacology Research & Perspectives, 2023)
